The test addresses T1, B1R receptor of the rat (rB1R) (Rattus norvegicus, UniProt P97583).
T1 construct: expressed in transfected cells; host or cells: CHO K1 cells
T1 sequence (P97583 1-337): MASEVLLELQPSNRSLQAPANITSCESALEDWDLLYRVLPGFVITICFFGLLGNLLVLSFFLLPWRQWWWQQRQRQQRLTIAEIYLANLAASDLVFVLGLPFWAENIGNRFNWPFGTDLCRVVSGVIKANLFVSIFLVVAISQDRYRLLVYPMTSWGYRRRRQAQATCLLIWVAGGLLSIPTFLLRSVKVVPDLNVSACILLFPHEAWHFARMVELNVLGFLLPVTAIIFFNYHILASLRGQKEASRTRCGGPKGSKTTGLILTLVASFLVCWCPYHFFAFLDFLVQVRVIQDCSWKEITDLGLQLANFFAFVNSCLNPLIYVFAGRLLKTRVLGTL
Kind of test: Functional investigation on the bradykinin 1 receptor (B1R), FLIPR Ca2+ assay, rB1R cells. Type of test: cell-based. The note with it: CHO K1 cells with rat B1R, agonist Des-Arg9 bradykinin, % of maximum achievable inhibition; for inhibition at 10 µM: CHO-K1, 10 μM test substance, read-out: B1R antagonism, rat [10 μM] % inhibition. The procedure, abridged:
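Ca2+ influx is measured as peak Fluo-4 fluorescence in a FLIPR protocol with two substance additions, following Lys-Des-[MUT] bradykinin (0.5 nM) or Des-[MUT] bradykinin (100 nM) challenge. Varying antagonist concentrations give % inhibition relative to maximum achievable and an IC50. Determinations in duplicate or triplicate, repeated independently (N>=2).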

This note sets out measurements from US8492559B2, “Substituted indole compounds” (Gruenenthal GmbH, priority 2009, dated 2013).

`COc1cc(C)c(S(=O)(=O)Nc2cccc3ccn(CCC(=O)N4CCC5(CC4)CCN(c4ccncc4)CC5)c23)c(C)c1` [G_CC-54, 4-Methoxy-2,6-dimethyl-N-[1-[3-oxo-3-(3-pyridin-4-yl-3,9-diazaspiro[5.5]undecan-9-yl)-propyl]-1H-indol-7-yl]-benzenesulfonic acid amide]: the inhibition at 10 µM was 96%.

In the case of `COc1cc(C)c(S(=O)(=O)Nc2cccc3ccn(CC(=O)N4CCC5(CCC(Oc6ccncc6)CC5)CC4)c23)c(C)c1` [Compound G-22, 4-Methoxy-2,6-dimethyl-N-(1-(2-oxo-2-(9-(pyridin-4-yloxy)-3-azaspiro[5.5]undecan-3-yl)ethyl)-1H-indol-7-yl)benzenesulfonic acid amide], the inhibition at 10 µM was 99%.

For the compound `Cc1cc(S(=O)(=O)Nc2cccc3ccn(CCC(=O)N4CCN(CC5CCN(C)CC5)CC4)c23)c(C)cc1Cl` [G_CC-62, 4-Chloro-2,5-dimethyl-N-[1-[3-[4-[(1-methyl-piperidin-4-yl)-methyl]-piperazin-1-yl]-3-oxo-propyl]-1H-indol-7-yl]-benzenesulfonic acid amide], the inhibition at 10 µM was determined as 99%. As to `COc1cc(C)c(S(=O)(=O)NCc2cccc3ccn(CC(=O)N4CCC5(CC4)CCN(c4ccncc4)CC5)c23)c(C)c1` [Compound G-24, 4-Methoxy-2,6-dimethyl-N-[[1-[2-oxo-2-(9-pyridin-4-yl-3,9-diazaspiro[5.5]undecan-3-yl)-ethyl]-1H-indol-7-yl]-methyl]-benzenesulfonic acid amide], the inhibition at 10 µM is 103%.

With `COc1cc(C)c(S(=O)(=O)Nc2cccc3ccn(CC(=O)N4CCC5(CC4)CCN(Cc4ccccc4)C5=O)c23)c(C)c1` [G_CC-32, N-[1-[2-(3-Benzyl-4-oxo-3,8-diazaspiro[4.5]decan-8-yl)-2-oxo-ethyl]-1H-indol-7-yl]-4-methoxy-2,6-dimethyl-benzenesulfonic acid amide], the inhibition at 10 µM was found to be 101%. Same read-out and setting: the figure for `COc1cc(C)c(S(=O)(=O)Nc2cccc3ccn(CC(=O)N4CCC(OCCN5CCCC5)(c5cccnc5)CC4)c23)c(C)c1` [Compound G-06, 4-Methoxy-2,6-dimethyl-N-[1-[2-oxo-2-[4-pyridin-3-yl-4-(2-pyrrolidin-1-yl-ethoxy)-piperidin-1-yl]-ethyl]-1H-indol-7-yl]-benzenesulfonic acid amide] is 70%. Regarding `Cc1cc(S(=O)(=O)Nc2ccc3ccn(CC(=O)N4CCN(CC5CCN(C)CC5)CC4)c3c2)c(C)cc1Cl` [G_CC-8, 4-Chloro-2,5-dimethyl-N-[1-[2-[4-[(1-methyl-piperidin-4-yl)-methyl]-piperazin-1-yl]-2-oxo-ethyl]-1H-indol-6-yl]-benzenesulfonic acid amide], the inhibition at 10 µM came to 100%. On the same count and under the same terms, for `O=C(Cn1ccc2ccc(N3Cc4cccc(Cl)c4C3=O)cc21)N1CCC2(CCN(c3ccncc3)CC2)C1` [Compound G-12, 7-Chloro-2-(1-(2-oxo-2-(8-(pyridin-4-yl)-2,8-diazaspiro[4.5]decan-2-yl)ethyl)-1H-indol-6-yl)isoindolin-1-one] the value was 92%; for `COc1cc(C)c(S(=O)(=O)Nc2ccc3ccn(CC(=O)N(C)CCCN4CCN(c5ccncc5)CC4)c3c2)c(C)c1` [G_CC-76, 2-[6-[[(4-Methoxy-2,6-dimethyl-phenyl)sulfonyl]amino]-1H-indol-1-yl]-N-methyl-N-[3-(4-pyridin-4-yl-piperazin-1-yl)-propyl]-acetamide], 104%.

For `O=C(Cn1ccc2ccc(N3Cc4cccc(Cl)c4C3=O)cc21)N1CCC2(CCC(N3CCC3)CC2)CC1` [Compound G-21, 2-(1-(2-(9-(Azetidin-1-yl)-3-azaspiro[5.5]undecan-3-yl)-2-oxoethyl)-1H-indol-6-yl)-7-chloroisoindolin-1-one], the inhibition at 10 µM came to 43%.

As for `O=C(Cn1ccc2ccc(N3CCn4ccc(Cl)c4C3=O)cc21)N1CCC2(CC1)CCN(c1ccncc1)CC2` [Compound G-33, 8-Chloro-2-[1-[2-oxo-2-(9-pyridin-4-yl-3,9-diazaspiro[5.5]undecan-3-yl)-ethyl]-1H-indol-6-yl]-3,4-dihydro-2H-pyrrolo[1,2-a]pyrazin-1-one], the inhibition at 10 µM came out at 46%. On the same count and under the same terms, for `COc1cc(C)c(S(=O)(=O)Nc2ccc3ccn(CC(=O)N4CCC(N5CCN(C)CC5)CC4)c3c2)c(C)c1` [G_CC-2, 4-Methoxy-2,6-dimethyl-N-[1-[2-[4-(4-methyl-piperazin-1-yl)-piperidin-1-yl]-2-oxo-ethyl]-1H-indol-6-yl]-benzenesulfonic acid amide] the value was 70%; for `O=C(Cn1ccc2ccc(N3Cc4cccc(Cl)c4C3=O)cc21)N1CCC2(CC1)CCN(c1ccncc1)CC2` [Compound G-08, 7-Chloro-2-[1-[2-oxo-2-(9-pyridin-4-yl-3,9-diazaspiro[5.5]undecan-3-yl)-ethyl]-1H-indol-6-yl]-2,3-dihydro-isoindol-1-one], 97%; for `COc1cc(C)c(S(=O)(=O)Nc2cccc3ccn(CC(=O)N4CCC5(CC4)C(=O)NCN5c4ccccc4)c23)c(C)c1` [Compound G-04, 4-Methoxy-2,6-dimethyl-N-[1-[2-oxo-2-(1-oxo-4-phenyl-2,4,8-triazaspiro[4.5]decan-8-yl)-ethyl]-1H-indol-7-yl]-benzenesulfonic acid amide], 62%. With `O=C(Cn1ccc2ccc(N3Cc4cccc(Cl)c4C3=O)cc21)N1CCC2(CCC(Oc3ccncc3)CC2)CC1` [Compound G-19, 7-Chloro-2-(1-(2-oxo-2-(9-(pyridin-4-yloxy)-3-azaspiro[5.5]undecan-3-yl)ethyl)-1H-indol-6-yl)isoindolin-1-one], the inhibition at 10 µM worked out at 94%.

On to `O=C(Cn1ccc2ccc(N3Cc4cccc(Cl)c4C3=O)cc21)N1CCC2(CCC(N3CC(F)(F)C3)CC2)CC1` [Compound G-20, 7-Chloro-2-(1-(2-(9-(3,3-difluoroazetidin-1-yl)-3-azaspiro[5.5]undecan-3-yl)-2-oxoethyl)-1H-indol-6-yl)isoindolin-1-one], for which the inhibition at 10 µM amounted to 13%. The same measure, in the same setting: for `COc1cc(C)c(S(=O)(=O)Nc2cccc3ccn(CC(=O)N4CCC5(CCC(N6CCC6)CC5)CC4)c23)c(C)c1` [Compound G-18, N-(1-(2-(9-(azetidin-1-yl)-3-azaspiro[5.5]undecan-3-yl)-2-oxoethyl)-1H-indol-7-yl)-4-methoxy-2,6-dimethylbenzenesulfonic acid amide] the value was 99%. For `COc1cc(C)c(S(=O)(=O)Nc2ccc3ccn(CC(=O)N4CCC(CCN5CCCC5)CC4)c3c2)c(C)c1` [Compound G-01, 4-Methoxy-2,6-dimethyl-N-[1-[2-oxo-2-[4-(2-pyrrolidin-1-yl-ethyl)-piperidin-1-yl]-ethyl]-1H-indol-6-yl]-benzenesulfonic acid amide], the “B1R antagonism, rat [10 μM] % inhibition” value (10 μM test substance, 10 µM) was 78%. For the compound `COc1cc(C)c(S(=O)(=O)Nc2cccc3ccn(CC(=O)N4CCC5(CC4)CCN(c4ccncc4)CC5)c23)c(C)c1` [G_CC-91, 4-Methoxy-2,6-dimethyl-N-[1-[2-oxo-2-(3-pyridin-4-yl-3,9-diazaspiro-[5.5]undecan-9-yl)-ethyl]-1H-indol-7-yl]-benzenesulfonic acid amide], the inhibition at 10 µM worked out at 100%.

As for `O=C(Cn1ccc2ccc(N3Cc4cccc(Cl)c4C3=O)cc21)N1CCC2(CC1)CC(c1ccncc1)=NO2` [Compound G-15, 7-Chloro-2-(1-(2-oxo-2-(3-(pyridin-4-yl)-1-oxa-2,8-diazaspiro[4.5]dec-2-en-8-yl)ethyl)-1H-indol-6-yl)isoindolin-1-one], the inhibition at 10 µM was 54%.
